Assay results taken from patent publication US20240269106A1, “SMALL MOLECULE MODULATOR TARGETING A RARE HISTONE MODIFICATION REGULATING ADIPOGENESIS AND PHARMACEUTICAL FORMULATION THEREOF” (COUNCIL OF SCIENTIFIC AND INDUSTRIAL RESEARCH AN INDIAN …, priority 2021, published 2024).

Tests used:
full length p300 [1] = target: T1, full length p300 (Homo sapiens, UniProt Q09472); assay: In vitro p300 acetylation assay (immunoblot); assay type: biochemical; details: for effect on p300 catalysed acetyltransferase activity: FIG. 2i, immunoblot
T1 construct: Purified full length p300 protein was used for in vitro acetylation/butyrylation assay
Description: (§1) Purified full length p300 protein was used for in vitro acetylation/butyrylation assay in presence/absence of different compounds. Acylation reactions were performed in reaction buffer (25 mM Tris-HCl PH 7.5, 100 mM NaCl, 0.1 mM EDTA, 1 mM DTT, 10% Glycerol, 1×PIC) with 100 ng/ml TSA, and 50 μM Butyryl-CoA/Acetyl COA. Xenopus histone H3 (500 ng) was used as the substrate and p300 (10,000 cpm activity) was used as the enzyme. Reactions were incubated in presence or absence of small molecule modulators (including compound of Formula I) for 10 minutes at 30° C., followed by initiation of the acetylation/butyrylation reaction by the addition of acetyl/butyryl CoA. After a further 10 minutes, reactions were stopped by addition of Laemmli buffer and samples were used for immunoblotting.
(§2) Immunoblotting with antibodies against acetylated H3K18, acetylated H3K9 and pan-butyryl lysine was performed to check for the relative inhibition of acetyl transferase and butyryl transferase activities of full length p300 by garcinol, isogarcinol and its different derivatives including compound of Formula I at different concentrations. FIG. 2i depicts the effect of garcinol, isogarcinol and two of its derivatives LTK-13 and LTK-14 on p300 catalysed acetyltransferase activity. […] FIG. 2ii depicts the effect of LTK-14 on acetylation and butyrylation catalysed by p300. Lane 1, enzyme alone; Lane 2-4, enzyme+LTK-14 at concentrations 500 nM, 2 μM and 10 μM, respectively. LTK-14 could inhibit acetylation at 10 μM concentration while butyrylation was inhibited at 2 μM concentration. FIG. 2iii depicts the effect of compound x on acetylation and butyrylation catalysed by p300. Lane 1, enzyme alone; Lane 2, enzyme+DMSO; Lane 3-6, enzyme+compound x at concentrations 10, 15, 20 and 25 μM, respectively.

full length p300 [2] = target: T1, full length p300; assay: In vitro p300 butyrylation assay (immunoblot); assay type: biochemical; details: for effect on p300 catalysed butyrylation: FIG. 2 legend
Description: as §1, §2

[3] = tested at 500 nM, 2 μM and 10 μM

T1 sequence (Q09472 whole entry, species assumed): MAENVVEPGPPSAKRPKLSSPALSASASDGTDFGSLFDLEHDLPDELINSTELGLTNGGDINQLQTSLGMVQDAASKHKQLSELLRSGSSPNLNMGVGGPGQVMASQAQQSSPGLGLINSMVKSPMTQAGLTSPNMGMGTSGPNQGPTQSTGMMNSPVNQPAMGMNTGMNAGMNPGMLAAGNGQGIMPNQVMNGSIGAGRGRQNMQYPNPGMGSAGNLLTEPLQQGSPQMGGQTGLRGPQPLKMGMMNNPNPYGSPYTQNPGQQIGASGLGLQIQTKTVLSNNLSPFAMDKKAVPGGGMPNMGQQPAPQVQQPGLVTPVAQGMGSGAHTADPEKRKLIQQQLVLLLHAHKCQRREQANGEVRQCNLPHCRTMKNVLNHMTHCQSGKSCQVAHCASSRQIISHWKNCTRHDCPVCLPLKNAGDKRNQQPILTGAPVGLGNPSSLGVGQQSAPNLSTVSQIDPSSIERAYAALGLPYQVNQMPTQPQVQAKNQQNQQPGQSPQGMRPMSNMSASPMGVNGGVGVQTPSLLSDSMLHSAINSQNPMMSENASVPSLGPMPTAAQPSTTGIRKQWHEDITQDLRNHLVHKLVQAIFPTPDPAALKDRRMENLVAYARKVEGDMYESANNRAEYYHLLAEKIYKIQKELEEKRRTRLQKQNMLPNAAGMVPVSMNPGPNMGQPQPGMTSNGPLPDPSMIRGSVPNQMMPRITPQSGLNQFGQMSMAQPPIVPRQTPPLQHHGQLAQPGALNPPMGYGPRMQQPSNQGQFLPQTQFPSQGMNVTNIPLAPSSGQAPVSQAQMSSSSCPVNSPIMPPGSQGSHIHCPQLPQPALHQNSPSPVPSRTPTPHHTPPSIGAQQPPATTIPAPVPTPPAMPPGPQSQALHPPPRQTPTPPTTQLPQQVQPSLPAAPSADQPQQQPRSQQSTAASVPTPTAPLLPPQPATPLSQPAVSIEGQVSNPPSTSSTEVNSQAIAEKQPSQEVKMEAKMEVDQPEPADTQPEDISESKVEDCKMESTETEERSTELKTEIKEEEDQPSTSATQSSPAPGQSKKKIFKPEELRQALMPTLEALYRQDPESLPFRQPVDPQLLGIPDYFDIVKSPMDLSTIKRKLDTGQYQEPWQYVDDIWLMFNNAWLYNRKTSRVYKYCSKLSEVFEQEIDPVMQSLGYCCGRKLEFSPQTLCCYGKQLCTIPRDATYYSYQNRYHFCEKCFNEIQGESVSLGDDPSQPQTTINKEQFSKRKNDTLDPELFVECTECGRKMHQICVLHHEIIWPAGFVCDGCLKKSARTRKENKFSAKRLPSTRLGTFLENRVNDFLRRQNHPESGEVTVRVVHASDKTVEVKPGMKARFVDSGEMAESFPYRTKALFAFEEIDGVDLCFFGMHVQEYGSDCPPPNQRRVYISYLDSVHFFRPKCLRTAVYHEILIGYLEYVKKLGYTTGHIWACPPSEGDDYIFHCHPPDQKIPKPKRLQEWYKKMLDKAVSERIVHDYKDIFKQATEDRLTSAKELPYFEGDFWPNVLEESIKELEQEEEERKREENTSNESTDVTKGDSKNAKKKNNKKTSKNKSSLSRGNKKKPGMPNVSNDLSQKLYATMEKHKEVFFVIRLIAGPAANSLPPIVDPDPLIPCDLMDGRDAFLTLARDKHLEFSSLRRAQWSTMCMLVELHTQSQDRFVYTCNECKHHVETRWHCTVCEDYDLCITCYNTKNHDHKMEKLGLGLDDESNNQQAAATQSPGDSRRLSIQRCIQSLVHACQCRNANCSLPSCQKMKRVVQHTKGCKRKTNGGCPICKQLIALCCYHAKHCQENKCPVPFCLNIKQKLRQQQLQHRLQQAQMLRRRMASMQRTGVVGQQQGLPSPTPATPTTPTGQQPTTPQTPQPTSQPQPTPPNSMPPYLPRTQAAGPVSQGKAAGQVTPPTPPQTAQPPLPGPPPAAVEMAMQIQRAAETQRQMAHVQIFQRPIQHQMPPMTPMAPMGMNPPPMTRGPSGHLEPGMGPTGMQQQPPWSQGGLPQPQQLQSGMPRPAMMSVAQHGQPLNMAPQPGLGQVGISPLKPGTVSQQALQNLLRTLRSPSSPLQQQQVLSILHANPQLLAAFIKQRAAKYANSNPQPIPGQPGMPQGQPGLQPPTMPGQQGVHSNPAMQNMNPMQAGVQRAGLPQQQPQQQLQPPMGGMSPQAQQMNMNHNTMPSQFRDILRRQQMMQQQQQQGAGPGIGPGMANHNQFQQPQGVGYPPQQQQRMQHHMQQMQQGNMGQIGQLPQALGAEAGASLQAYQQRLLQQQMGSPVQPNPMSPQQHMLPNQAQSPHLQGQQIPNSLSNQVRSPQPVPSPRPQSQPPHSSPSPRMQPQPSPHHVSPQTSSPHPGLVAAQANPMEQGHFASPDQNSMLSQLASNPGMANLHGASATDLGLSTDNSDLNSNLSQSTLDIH

effect on p300 catalysed acetyltransferase activity (full length p300 [1])	effect on p300 catalysed butyrylation (full length p300 [2])	concentration at which acetylation was inhibited (full length p300 [1]; [3]) [µM]	concentration at which butyrylation was inhibited (full length p300 [2]; [3]) [µM]	Structure (SMILES)
showed inhibitory effect	can inhibit	–	–	CC(C)=CC[C@H]1C[C@@]23C[C@@H](CC=C(C)C)C(C)(C)[C@@](CC=C(C)C)(C(=O)C(C(=O)c4ccc(O)c(O)c4)=C2OC1(C)C)C3=O [isogarcinol]
showed inhibitory effect	can inhibit	10	2	COc1ccc(C(=O)C2=C3OC(C)(C)[C@@H](CC=C(C)C)C[C@@]34C[C@@H](CC=C(C)C)C(C)(C)[C@@](CC=C(C)C)(C2=O)C4=O)cc1O [LTK-14]
